From ChEMBL document CHEMBL5357065, “Neuropharmacological Advances: Harnessing 5-HT2A Receptor Modulators and Psychoplastogens” (ACS Med Chem Lett, 2024)
Active and inactive are the calls of the source. The calls are words filed in the database; no cut-off is given here.

What was measured:
Type in all cases: functional, cell-based
[1] = target: 5-hydroxytryptamine receptor 2B (Homo sapiens) (UniProt P41595); experiment: Modulation of 5-HT2B receptor (unknown origin) assessed as modulation of 5-HT induced intracellular Ca2+ release by measuring maximal efficacy at 1 uM preincubated for 15 mins followed by 5-HT addition and measured by FLIPR analysis relative to control; conditions: filed as modulator
Cortical neurone [2] = experiment: Induction of neurite outgrowth in Wistar rat Cortical neurons assessed as increase in neurite branching at <=10 pM incubated for 72 hrs by automated imaging based analysis
Cortical neurone [3] = experiment: Induction of neurite outgrowth in Wistar rat Cortical neurons assessed as increase in neurite length at <=10 pM incubated for 72 hrs by automated imaging based analysis
Cortical neurone [4] = experiment: Induction of neurite outgrowth in Wistar rat Cortical neurons assessed as increase in neurite number at <=10 pM incubated for 72 hrs by automated imaging based analysis
[5] = target: 5-hydroxytryptamine receptor 2A (Homo sapiens) (UniProt P28223); experiment: Positive allosteric modulation of human 5-HT2A receptor stably expressed in CHO cells assessed as modulation of 5-HT induced intracellular Ca2+ release by measuring maximal efficacy at 1 uM preincubated for 15 mins followed by 5-HT addition and measured by FLIPR analysis relative to control; conditions: filed as positive allosteric modulator
[6] = target: T1, 5-hydroxytryptamine receptor 2C (Homo sapiens) (UniProt P28335); experiment: Positive allosteric modulation of human 5-HT2C receptor stably expressed in CHO cells assessed as modulation of 5-HT induced intracellular Ca2+ release by measuring maximal efficacy at 1 uM preincubated for 15 mins followed by 5-HT addition and measured by FLIPR analysis relative to control; conditions: filed as positive allosteric modulator
T1 sequence (whole entry): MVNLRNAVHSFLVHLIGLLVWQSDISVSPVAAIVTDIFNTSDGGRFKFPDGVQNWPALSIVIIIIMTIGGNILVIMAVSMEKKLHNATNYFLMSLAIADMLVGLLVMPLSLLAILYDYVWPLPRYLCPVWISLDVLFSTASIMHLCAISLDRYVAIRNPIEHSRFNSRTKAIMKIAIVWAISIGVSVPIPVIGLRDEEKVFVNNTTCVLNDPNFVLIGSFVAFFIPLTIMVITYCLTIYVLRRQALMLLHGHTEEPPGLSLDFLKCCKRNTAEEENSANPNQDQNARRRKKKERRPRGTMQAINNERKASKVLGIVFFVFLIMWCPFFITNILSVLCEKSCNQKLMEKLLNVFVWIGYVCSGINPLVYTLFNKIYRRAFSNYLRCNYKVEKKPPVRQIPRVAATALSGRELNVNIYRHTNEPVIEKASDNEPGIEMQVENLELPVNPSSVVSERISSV

5-hydroxytryptamine receptor 2B (Homo sapiens), sequence (P41595 whole entry): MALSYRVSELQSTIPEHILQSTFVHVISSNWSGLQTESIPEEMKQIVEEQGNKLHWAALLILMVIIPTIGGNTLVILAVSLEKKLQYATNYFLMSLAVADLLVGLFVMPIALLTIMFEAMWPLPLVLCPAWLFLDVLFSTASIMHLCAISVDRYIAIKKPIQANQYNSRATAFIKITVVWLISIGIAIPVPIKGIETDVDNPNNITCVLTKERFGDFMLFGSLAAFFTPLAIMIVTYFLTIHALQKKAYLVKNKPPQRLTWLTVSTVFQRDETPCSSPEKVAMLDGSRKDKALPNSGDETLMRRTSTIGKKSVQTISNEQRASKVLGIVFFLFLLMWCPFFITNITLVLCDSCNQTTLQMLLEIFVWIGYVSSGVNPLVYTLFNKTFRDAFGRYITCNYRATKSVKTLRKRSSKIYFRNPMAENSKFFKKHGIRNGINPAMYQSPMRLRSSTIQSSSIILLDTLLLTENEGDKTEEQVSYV
5-hydroxytryptamine receptor 2A (Homo sapiens), sequence (P28223 whole entry): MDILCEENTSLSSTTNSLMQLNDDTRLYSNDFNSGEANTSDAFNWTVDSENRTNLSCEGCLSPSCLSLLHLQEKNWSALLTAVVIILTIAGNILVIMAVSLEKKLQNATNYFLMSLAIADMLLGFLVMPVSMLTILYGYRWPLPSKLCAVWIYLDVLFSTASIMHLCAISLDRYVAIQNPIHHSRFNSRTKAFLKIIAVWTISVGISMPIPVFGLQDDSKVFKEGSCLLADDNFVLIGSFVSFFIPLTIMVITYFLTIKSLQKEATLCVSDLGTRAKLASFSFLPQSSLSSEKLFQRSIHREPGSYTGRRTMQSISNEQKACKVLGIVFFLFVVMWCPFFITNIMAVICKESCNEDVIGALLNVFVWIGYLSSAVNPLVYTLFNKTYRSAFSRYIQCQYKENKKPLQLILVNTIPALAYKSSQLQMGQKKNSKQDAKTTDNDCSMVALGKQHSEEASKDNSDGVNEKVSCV

O=C(NC[C@H](O)CO)[C@@H]1C[C@H](c2ccccc2)CCN1
Emax [1]: 105%

COc1ccc2c3c([nH]c2c1)C[C@H]1CCCN1CC3
Activity (Cortical neurone [2]): Active | Activity (Cortical neurone [3]): Active | Activity (Cortical neurone [4]): Active

COc1ccc2c3c([nH]c2c1)CCN1CCC[C@@H]1C3
Activity (Cortical neurone [2]): Active | Activity (Cortical neurone [3]): Active | Activity (Cortical neurone [4]): Active

CC(Cc1cnc2cc(F)ccn12)N(C)C (stereo not drawn)
Activity (Cortical neurone [2]): Active | Activity (Cortical neurone [3]): inactive | Activity (Cortical neurone [4]): inactive

COc1ccc2c3c([nH]c2c1)CCN1CCC[C@H]1C3
Activity (Cortical neurone [2]): Active | Activity (Cortical neurone [3]): Active | Activity (Cortical neurone [4]): Active

COc1ccn2c(CC(C)N(C)C)ncc2c1 (stereo not drawn)
Activity (Cortical neurone [2]): Active | Activity (Cortical neurone [3]): Active | Activity (Cortical neurone [4]): Active

COc1cccc2[nH]c3c(c12)C[C@H]1CCCN1CC3
Activity (Cortical neurone [2]): Active | Activity (Cortical neurone [3]): Active | Activity (Cortical neurone [4]): Active

O=C(NC[C@H](O)CO)c1cc(-c2ccccc2)ccn1
Emax [5]: 106% | Emax [1]: 115% | Emax [6]: 120%

COc1ccc2c3c([nH]c2c1)C[C@@H]1CCCN1CC3
Activity (Cortical neurone [2]): Active | Activity (Cortical neurone [3]): Active | Activity (Cortical neurone [4]): Active

O=C(CCCc1ccccc1)NC[C@H](O)CO
Emax [5]: 97.8% | Emax [1]: 106% | Emax [6]: 124%
